According to PMC5581522 (Cancer Science, 2017):
Entries after “also recorded” stand apart in the source; their conditions may differ. Like-named read-outs stand apart in the source and are kept apart here. Marks after values point to notes of the source that are not given here.

Assays:
[1] = Phase 1 tolerability and safety (DLT, TEAEs, NCI CTCAE v4.0); type: in vivo, Japanese patients
Method: Eligible patients were assigned to one of two treatment groups (dose levels). […] Three to six patients were enrolled in each treatment group. Dose escalation was carried out according to a 3 + 3 design to define dose‐limiting toxicities (DLTs), and the maximum administered dose/recommended phase 2 dose (RP2D). […] Patients received treatment for a maximum of 30 cycles or until treatment discontinuation. […] Treatment could be postponed for up to 28 days due to toxicity; longer toxicity‐related delays would lead to study discontinuation.
The maximum tolerated dose (MTD) was defined as the highest dose level at which fewer than two of total six patients or <33% of patients (if the cohort was expanded beyond six patients) experienced a DLT. The RP2D was determined based on the observed DLTs and identified MTD; RP2D would not be dosed higher than the MTD. If the MTD was not reached, the RP2D was defined based on the safety and PK data. Prophylactic use of antiemetics and colony‐stimulating factors was not permitted during the DLT‐evaluation period, in order to clearly define the safety profile in Japanese patients.
The safety of each treatment group was assessed by evaluating study drug exposure, AEs, serious AEs (SAEs), all deaths, changes in laboratory determinations, and vital signs parameters. […] AEs were assessed according to the NCI CTCAE version 4.0.29 An independent data monitoring committee reviewed safety data for DLT evaluation.

[2] = Plasma pharmacokinetics, cycle 1 day 1, noncompartmental; type: in vivo, Japanese patients; details: for half-life / AUC(0-inf) / Cmax / AUC(0-t): human, plasma; for half-life: harmonic mean ± pseudo SD; for AUC(0-inf) / Cmax / AUC(0-t): mean ± SD; for AUC(0-t): read-out: AUC0–8
Description: Noncompartmental methods were used to determine the maximum observed plasma concentration (C max), the time to C max (T max), the area under the plasma concentration‐time curve (AUC), and terminal elimination half‐life (t 1/2).

[3] = tested on: advanced solid tumors; experiment: Preliminary antitumor efficacy (RECIST version 1.1, TTP); type: in vivo, Japanese patients; details: for ORR: measurable disease
Method: To determine preliminary antitumor efficacy, baseline radiographic tumor assessments were conducted within 3 weeks prior to registration and thereafter every 8 weeks from cycle 1 day 1 and at the final visit, using the Response Evaluation Criteria In Solid Tumors (RECIST) version 1.1.30 In addition, the investigator evaluated the patient for evidence of clinical disease progression at each visit. Changes in measurable tumor lesions were assessed to determine the response rate, defined as proportion of patients with complete response (CR) or partial response (PR), and time to progression (TTP), defined as the number of days from the date the patient was dosed to the date the patient experienced an event of progressive disease (PD). […] Changes from baseline in performance status were analyzed.
Unless otherwise noted, for all statistical analyses, statistical significance was determined by a two‐sided P‐value ≤0.05. Descriptive statistics were used to describe baseline demographic variables, and summary statistics were computed for PK variables at each sampling time. PK variables were determined per patient and dose level. The safety of veliparib was assessed by evaluating veliparib exposure, AEs, SAEs, all deaths, and changes in laboratory determinations and vital sign parameters. The proportion of patients with CR or PR was estimated with a 95% confidence interval (CI) constructed for the estimated proportion. The distribution of TTP was estimated using Kaplan‐Meier methodology.

[4] = tested on: cancer antigen 125 (CA‐125); experiment: CA-125 tumor marker response (GCIG definition); type: in vivo, Japanese patients
Method: All enrolled patients with ovarian cancer or peritoneal cancer had measurements of cancer antigen 125 (CA‐125) on day 1 of cycle 1, every cycle (28 days) thereafter, and at the final visit. CA‐125 response was measured according to the Gynecologic Cancer InterGroup (GCIG) CA‐125 response definition.31

[5] = tested on: BRCA‐mutated tumors; details: phase 1, single agent; cited from earlier work
[6] = tested on: recurrent ovarian cancer and germline BRCA1 and BRCA2 mutations; details: cited from earlier work
[7] = 200 mg oral, cycle 1 day 1, n = 4
[8] = 400 mg oral, cycle 1 day 1, n = 9
[9] = 400 mg oral, cycle 1 day 1, n = 12
[10] = 14 patients with measurable disease

C[C@]1(c2nc3c(C(N)=O)cccc3[nH]2)CCCN1 [veliparib]
AEs / toxicities leading to death ([1]; all patients): No toxicities leading to death; also recorded: no AEs or SAEs leading to death | patients who discontinued treatment due to AEs/toxicity ([1]; human, in vivo): 6% | patients with a grade ≥3 AE / toxicity ([1]; human, in vivo): 50% | patients with abdominal pain ([1]; human, in vivo): 31.3% | patients with at least one grade ≥1 TEAE ([1]; human, in vivo): 100% | patients with decreased appetite ([1]; human, in vivo): 62.5% | patients with diarrhea ([1]; human, in vivo): 31.3% | patients with dysgeusia ([1]; human, in vivo): 31.3% | patients with fatigue ([1]; human, in vivo): 25% | patients with insomnia ([1]; human, in vivo): 25% | patients with malaise ([1]; human, in vivo): 31.3% | patients with nausea ([1]; human, in vivo): 93.8% | patients with neutropenia ([1]; human, in vivo): 25% | patients with thrombocytopenia ([1]; human, in vivo): 25% | patients with vomiting ([1]; human, in vivo): 93.8% | recommended phase 2 dose (RP2D) ([1]; human, in vivo, po, 28 days): 400 mg BID | anemia leading to dose interruption, reduction, or delay ([1]; in vivo): one patient | decreased appetite leading to dose interruption, reduction, or delay ([1]; in vivo): one patient | essential tremor leading to dose interruption, reduction, or delay ([1]; in vivo): one patient | fatigue leading to dose interruption, reduction, or delay ([1]; in vivo): three patients | nausea leading to dose interruption, reduction, or delay ([1]; in vivo): three patients | neutropenia leading to dose interruption, reduction, or delay ([1]; in vivo): three patients | patients experiencing a SAE ([1]; in vivo): two patients | patients with a dose‐limiting toxicity (DLT) ([1]; in vivo): one patient | thrombocytopenia leading to dose interruption, reduction, or delay ([1]; in vivo): three patients | vomiting leading to dose interruption, reduction, or delay ([1]; in vivo): two patients | half-life [2, 7]: 4.6 ± 1.1 h | AUC(0-inf) [2, 7]: 13600 ± 6240 ng·h/mL | Cmax [2, 7]: 2060 ± 1390 ng/mL | AUC(0-t) [2, 7]: 8890 ± 3770 ng·h/mL | half-life [2, 8]: 4.6 ± 1.3 h | AUC(0-inf) [2, 8]: 29500 ± 9820 ng·h/mL | Cmax [2, 9]: 3280 ± 1040 ng/mL | AUC(0-t) [2, 9]: 16600 ± 3590 ng·h/mL | increase of C max and AUC with dose ([2]; single‐dose oral 200 mg and 400 mg): dose‐proportional | Best response: CR ([3]; 200 mg BID (n = 4)): 0 n (%) | Best response: Not evaluable ([3]; 200 mg BID (n = 4)): 1 (25.0) n (%) | Best response: PD ([3]; 200 mg BID (n = 4)): 1 (25.0) n (%) | Best response: PR ([3]; 200 mg BID (n = 4)): 1 (25.0) n (%) | Best response: Stable disease ([3]; 200 mg BID (n = 4)): 1 (25.0) n (%) | DCR (CR + PR + stable disease) ([3]; 200 mg BID (n = 4)): 2 (50.0) n (%) | ORR ([3]; 200 mg BID (n = 4), 95% CI 0.6–80.6): 1 ^§ (25.0) [0.6–80.6] % | Median TTP ([3]; 200 mg dose cohort): 106 (range, 17–226) days | Best response: CR ([3]; 400 mg BID (n = 10)): 0 n (%) | Best response: Not evaluable ([3]; 400 mg BID (n = 10)): 0 n (%) | Best response: PD ([3]; 400 mg BID (n = 10)): 2 (20.0) n (%) | Best response: PR ([3]; 400 mg BID (n = 10)): 1 (10.0) n (%) | Best response: Stable disease ([3]; 400 mg BID (n = 10)): 7 (70.0) n (%) | DCR (CR + PR + stable disease) ([3]; 400 mg BID (n = 10)): 8 (80.0) n (%) | ORR ([3]; 400 mg BID (n = 10), 95% CI 0.3–44.5): 1 ^¶ (10.0) [0.3–44.5] % | Median TTP ([3]; 400 mg dose cohort): 170 (range, 48–340) days | disease control overall ([3]; 12 of 16 patients): 75% | patients progressed at first tumor assessment [3, 10]: 21.4% | patients with best objective response stable disease [3, 10]: eight patients | patients with best objective response PR ([3]; 14 patients with measurable disease, both with platinum sensitive ovarian cancer): Two patients | patients who discontinued treatment due to disease progression ([3]; all 16 patients): 75% | median percentage change from baseline in the sum of the tumor sizes of target lesions ([3]; all patients, range, −46.8% to +50.0%): −10.3% | disease control rate (DCR, CR + PR + stable disease) ([3]; patients with measurable disease (10/14)): 71.4% | Median TTP ([3]; platinum sensitive ovarian or peritoneal cancer, 400 mg BID, range, 48–340): 218 days | Best response: CR ([3]; total (n = 14)): 0 n (%) | Best response: Not evaluable ([3]; total (n = 14)): 1 (7.1) n (%) | Best response: PD ([3]; total (n = 14)): 3 (21.4) n (%) | Best response: PR ([3]; total (n = 14)): 2 (14.3) n (%) | Best response: Stable disease ([3]; total (n = 14)): 8 (57.1) n (%) | DCR (CR + PR + stable disease) ([3]; total (n = 14)): 10 (71.4) n (%) | ORR ([3]; total (n = 14), 95% CI 1.8–42.8): 14.3% | ORR ([3]; total (n = 14), 95% CI 1.8–42.8, listed as Veliparib): 2 (14.3) [1.8–42.8] % | best objective response ([3]; two patients without measurable disease at baseline): non‐CR/non‐PD | median change in CA‐125 level from baseline ([4]; all patients, range: −97.8% to +155.2%): −18.8% | patients achieving CA‐125 response ([4]; ovarian (n = 14) or primary peritoneal cancer (n = 1)): 20% | clinical benefit rate (called DCR) [5]: 68% | objective response rate (ORR) [5]: 40% | DCR ([6]; GOG‐280 study, germline BRCA1 or BRCA2 mutation): 74.0% | patients with objective response ([6]; n = 50, 90% CI: 16–38%): 26% | CR (number of patients) ([6]; n = 50): 2 | PR (number of patients) ([6]; n = 50): 11 | median progression‐free survival ([6]; phase 2 monotherapy): 8.2 months | objective responses ([6]; platinum‐resistant patients, n = 6/30, 90% CI: 9–36%): 20% | objective responses ([6]; platinum‐sensitive patients, n = 7/20, 90% CI: 18–56%): 35%
